Measured values from paper PMC5137160, “Optical imaging of MMP-12 active form in inflammation and aneurysm” (Scientific Reports, 2016).

Legend:
MMP-12 active form = MMP-12 active form (Mus musculus, UniProt P34960); assay: Sponge model of sterile inflammation, fluorescence imaging of explanted sponges; assay type: in vivo, C57BL/6 mice; design: from tissue; host or cells: subcutaneously implanted polyvinyl alcohol sponges in C57BL/6 mice; settings: 60 minutes after intravenous administration, 1 nmol
Protocol: Sponge model of sterile inflammation: Pieces of polyvinyl alcohol sponge (Ivalon Ear Wick, 0.9 e × 15 mm, New London, CT) were implanted in dorsal subcutaneous pockets of C57BL/6 mice (originally from Jackson Laboratory, Farmington, CT, n = 24) under isoflurane anesthesia, as described. Animals were re-anesthetized at day 1 or 4 after sponge implantation, and the sponges were removed for imaging or embedded in OCT, snap-frozen, and stored at −80 °C for further analysis.
Fluorescent probes (one nmol in 100 μL saline) were administered through a jugular vein catheter under inhaled isoflurane anesthesia. Blood samples were collected at various time points after probe administration to monitor blood clearance. […] Near-infrared fluorescence reflectance imaging was conducted using an IVIS Spectrum system (Caliper Life Science, Hopkinton, MA) with appropriate excitation (Ex) and emission (Em) filter sets (Ex/Em = 675/720 nm for probe 1 and Ex/Em = 745/800 nm for probes 3 and 4). Fluorescence from 10 μL of blood was converted to % injected dose per gram (% ID/g) using a standard curve derived from serial dilutions of each probe in 10 μL of mouse blood. Tissue fluorescence was quantified as mean efficiency per pixel and was presented as an arbitrary unit (AU) relative to the signal from each probe in 10 μL of mouse blood.

ADAMTS-5 = target: T1, ADAMTS-5 (Homo sapiens, UniProt Q9UNA0); assay: Metalloprotease inhibition assay (Ki); assay type: biochemical
T1 sequence (Q9UNA0 262-930): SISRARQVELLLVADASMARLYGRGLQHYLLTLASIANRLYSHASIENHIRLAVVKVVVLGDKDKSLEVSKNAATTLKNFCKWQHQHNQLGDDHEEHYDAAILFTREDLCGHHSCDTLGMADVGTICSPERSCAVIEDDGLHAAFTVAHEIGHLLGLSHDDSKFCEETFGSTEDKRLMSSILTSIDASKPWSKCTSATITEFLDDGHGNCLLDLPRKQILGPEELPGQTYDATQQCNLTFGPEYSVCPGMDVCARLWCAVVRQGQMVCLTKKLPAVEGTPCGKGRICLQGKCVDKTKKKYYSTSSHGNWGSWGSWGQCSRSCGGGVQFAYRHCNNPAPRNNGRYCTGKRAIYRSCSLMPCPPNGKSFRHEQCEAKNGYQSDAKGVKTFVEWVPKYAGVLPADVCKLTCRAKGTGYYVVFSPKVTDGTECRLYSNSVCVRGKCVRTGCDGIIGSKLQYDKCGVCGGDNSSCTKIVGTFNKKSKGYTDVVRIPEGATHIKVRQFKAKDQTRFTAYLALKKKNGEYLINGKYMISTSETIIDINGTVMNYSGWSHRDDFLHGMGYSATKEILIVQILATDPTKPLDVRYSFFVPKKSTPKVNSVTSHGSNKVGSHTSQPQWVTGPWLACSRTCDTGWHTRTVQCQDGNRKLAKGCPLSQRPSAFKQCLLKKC

hMMP-3 = target: T2, hMMP-3 (Homo sapiens, UniProt P08254); assay: MMP inhibition assay (Ki); assay type: biochemical
T2 construct: purchased R&D Systems (Minneapolis, MN)
Protocol: (§1) Human MMP-8, -9, -12 and -13 were produced in the laboratory. Other MMPs were purchased from R&D Systems (Minneapolis, MN). MMP inhibition assays were carried out as previously described. Pro-MMPs were pre-activated by p-aminophenylmercuric acetate following the method described by R&D Systems. Titration experiments were carried out to determine active enzyme concentration for each MMP prior to the assay. For each probe, the percentage of inhibition was determined from five different concentrations in triplicates, chosen to reach a range of 20–80% inhibition. Ki values were determined using the method proposed by Horovitz and Leviski[45].

hMMP-8 = target: T3, hMMP-8 (Homo sapiens, UniProt P22894); assay: MMP inhibition assay (Ki); assay type: biochemical
T3 construct: made in house
Protocol: as §1

hMMP-14 = target: T4, hMMP-14 (Homo sapiens, UniProt P50281); assay: MMP inhibition assay (Ki); assay type: biochemical
T4 construct: purchased R&D Systems (Minneapolis, MN)
Protocol: as §1

hMMP-13 = target: T5, hMMP-13 (Homo sapiens, UniProt P45452); assay: MMP inhibition assay (Ki); assay type: biochemical
T5 construct: made in house
Protocol: as §1

hMMP-7 = target: T6, hMMP-7 (Homo sapiens, UniProt P09237); assay: MMP inhibition assay (Ki); assay type: biochemical
T6 construct: purchased R&D Systems (Minneapolis, MN)
T6 sequence (P09237 95-267): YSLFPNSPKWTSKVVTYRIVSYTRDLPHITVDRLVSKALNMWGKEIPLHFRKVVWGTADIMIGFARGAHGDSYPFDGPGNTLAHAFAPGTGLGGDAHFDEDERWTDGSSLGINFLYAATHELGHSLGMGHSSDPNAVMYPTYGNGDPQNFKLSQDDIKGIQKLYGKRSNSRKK
Protocol: as §1

hMMP-2 = target: T7, hMMP-2 (Homo sapiens, UniProt P08253); assay: MMP inhibition assay (Ki); assay type: biochemical
T7 construct: purchased R&D Systems (Minneapolis, MN)
T7 sequence (P08253 110-660): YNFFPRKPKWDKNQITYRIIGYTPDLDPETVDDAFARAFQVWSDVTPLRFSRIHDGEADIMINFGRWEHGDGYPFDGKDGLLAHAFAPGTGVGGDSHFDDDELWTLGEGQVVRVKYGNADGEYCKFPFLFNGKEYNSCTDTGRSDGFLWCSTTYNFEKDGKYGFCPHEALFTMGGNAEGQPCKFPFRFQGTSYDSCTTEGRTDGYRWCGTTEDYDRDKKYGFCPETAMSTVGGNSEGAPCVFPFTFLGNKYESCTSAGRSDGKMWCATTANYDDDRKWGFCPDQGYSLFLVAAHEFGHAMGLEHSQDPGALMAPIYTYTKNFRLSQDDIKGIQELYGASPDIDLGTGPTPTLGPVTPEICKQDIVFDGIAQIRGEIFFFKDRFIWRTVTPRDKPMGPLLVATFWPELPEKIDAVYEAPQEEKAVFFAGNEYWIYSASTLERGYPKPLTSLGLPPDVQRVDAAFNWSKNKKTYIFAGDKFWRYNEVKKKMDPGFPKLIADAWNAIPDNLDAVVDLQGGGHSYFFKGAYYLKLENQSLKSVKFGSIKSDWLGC
Protocol: as §1

hMMP-9 = target: T8, hMMP-9 (Homo sapiens, UniProt P14780); assay: MMP inhibition assay (Ki); assay type: biochemical
T8 construct: made in house
Protocol: as §1

hMMP-10 = target: T9, hMMP-10 (Homo sapiens, UniProt P09238); assay: MMP inhibition assay (Ki); assay type: biochemical
T9 construct: purchased R&D Systems (Minneapolis, MN)
Protocol: as §1

hMMP-12 = assay: MMP inhibition assay (Ki); assay type: biochemical, human
Protocol: as §1

MMP-12 active form, sequence (P34960 110-473): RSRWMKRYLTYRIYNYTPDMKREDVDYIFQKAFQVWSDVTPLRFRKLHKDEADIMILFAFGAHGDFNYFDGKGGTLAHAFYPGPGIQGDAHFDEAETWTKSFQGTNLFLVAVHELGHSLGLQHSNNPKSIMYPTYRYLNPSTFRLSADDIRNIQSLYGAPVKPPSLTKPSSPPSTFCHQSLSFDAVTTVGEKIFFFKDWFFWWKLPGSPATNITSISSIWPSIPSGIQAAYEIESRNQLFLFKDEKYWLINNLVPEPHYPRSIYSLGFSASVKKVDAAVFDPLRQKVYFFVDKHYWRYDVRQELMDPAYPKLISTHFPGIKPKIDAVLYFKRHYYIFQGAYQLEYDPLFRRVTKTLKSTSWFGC
T3 sequence (P22894 101-467): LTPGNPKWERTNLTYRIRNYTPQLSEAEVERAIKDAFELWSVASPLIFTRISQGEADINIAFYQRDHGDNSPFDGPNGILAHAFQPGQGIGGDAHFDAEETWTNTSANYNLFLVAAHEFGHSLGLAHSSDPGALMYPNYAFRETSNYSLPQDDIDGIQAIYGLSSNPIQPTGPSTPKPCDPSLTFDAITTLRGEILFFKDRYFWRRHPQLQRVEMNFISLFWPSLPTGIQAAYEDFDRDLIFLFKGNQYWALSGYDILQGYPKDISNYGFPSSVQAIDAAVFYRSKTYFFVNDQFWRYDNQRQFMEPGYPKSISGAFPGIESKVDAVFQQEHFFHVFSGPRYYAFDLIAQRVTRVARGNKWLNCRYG
T2 sequence (P08254 100-477): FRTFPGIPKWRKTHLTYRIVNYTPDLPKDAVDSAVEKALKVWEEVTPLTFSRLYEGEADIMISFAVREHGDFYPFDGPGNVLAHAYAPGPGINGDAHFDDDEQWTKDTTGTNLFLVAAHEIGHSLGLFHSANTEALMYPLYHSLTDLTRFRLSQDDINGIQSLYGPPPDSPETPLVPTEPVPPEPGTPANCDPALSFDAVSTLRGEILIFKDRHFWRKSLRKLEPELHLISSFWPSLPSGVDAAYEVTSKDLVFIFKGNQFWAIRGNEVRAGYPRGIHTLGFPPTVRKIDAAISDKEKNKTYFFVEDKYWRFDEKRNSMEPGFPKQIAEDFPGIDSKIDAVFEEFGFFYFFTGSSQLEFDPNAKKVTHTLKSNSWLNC
T9 sequence (P09238 99-476): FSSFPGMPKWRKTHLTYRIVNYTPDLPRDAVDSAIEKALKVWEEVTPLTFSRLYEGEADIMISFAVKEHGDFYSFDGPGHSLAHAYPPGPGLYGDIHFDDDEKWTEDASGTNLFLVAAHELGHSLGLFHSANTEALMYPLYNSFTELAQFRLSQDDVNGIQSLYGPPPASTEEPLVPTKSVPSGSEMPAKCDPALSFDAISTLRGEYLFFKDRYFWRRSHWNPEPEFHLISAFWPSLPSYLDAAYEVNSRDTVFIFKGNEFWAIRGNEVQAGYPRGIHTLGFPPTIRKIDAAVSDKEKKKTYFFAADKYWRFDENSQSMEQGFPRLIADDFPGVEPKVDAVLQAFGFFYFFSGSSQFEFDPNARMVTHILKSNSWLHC
T8 sequence (P14780 94-707): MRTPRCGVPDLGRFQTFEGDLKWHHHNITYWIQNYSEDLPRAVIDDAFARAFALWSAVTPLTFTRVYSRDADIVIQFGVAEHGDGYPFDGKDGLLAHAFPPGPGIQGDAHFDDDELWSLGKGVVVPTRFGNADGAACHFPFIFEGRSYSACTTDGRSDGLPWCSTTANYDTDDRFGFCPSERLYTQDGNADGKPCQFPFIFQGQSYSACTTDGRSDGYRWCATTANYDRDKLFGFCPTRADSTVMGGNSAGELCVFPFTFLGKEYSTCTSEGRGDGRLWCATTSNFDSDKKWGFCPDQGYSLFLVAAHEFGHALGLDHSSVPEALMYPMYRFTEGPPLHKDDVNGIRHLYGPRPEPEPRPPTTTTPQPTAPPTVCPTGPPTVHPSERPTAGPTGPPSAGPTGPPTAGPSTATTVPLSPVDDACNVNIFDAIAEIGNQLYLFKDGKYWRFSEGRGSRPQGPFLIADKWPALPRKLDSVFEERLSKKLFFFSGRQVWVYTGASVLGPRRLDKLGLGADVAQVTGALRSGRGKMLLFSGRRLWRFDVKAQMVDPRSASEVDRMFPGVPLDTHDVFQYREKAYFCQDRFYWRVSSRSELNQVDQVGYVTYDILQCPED

In the case of CC1(C)C(=CC=C2CCCC(C=CC3=[N+](CCC[N+](C)(C)C)c4ccc(S(=O)(=O)[O-])cc4C3(C)C)=C2Oc2ccc(CCC(=O)NCCCOCCOCCOCCCNC(=O)C(CCC(=O)[O-])NC(=O)C(CCC(=O)O)NC(=O)C(Cc3cc(-c4cccc(Oc5ccccc5)c4)no3)CP(=O)(O)c3ccc(Br)cc3)cc2)N(CCC[N+](C)(C)C)c2ccc(S(=O)(=O)[O-])cc21 (centres unmarked) [probe 4], the “fluorescence signal in explanted sponges” value (MMP-12 active form) is reported as “significantly lower”, the Ki (ADAMTS-5) is reported as over 10 µM and the Ki (hMMP-3) is reported as over 12 µM. The Ki (hMMP-8) was 7.5 ± 0.73 µM, the Ki (hMMP-14) was 7.86 ± 1.53 µM and the Ki (hMMP-13) was 7.73 ± 1.53 µM. For the same molecule, the Ki (hMMP-7) was 9.8 ± 0.32 µM, the Ki (hMMP-2) was over 12 µM and the Ki (hMMP-9) was 4.9 ± 1.3 µM. The Ki (hMMP-10) was 6.43 ± 1.67 µM and the Ki (hMMP-12) was 4.04 ± 0.67 µM.

With CC1(C)C(/C=C/C2=C(Oc3ccc(CCC(=O)NCCCOCCOCCOCCCNC(=O)[C@H](CCC(=O)[O-])NC(=O)[C@H](CCC(=O)O)NC(=O)[C@H](Cc4cc(-c5ccc(-c6cccc(Cl)c6)cc5)no4)CP(=O)(O)c4ccc(Br)cc4)cc3)C(=C/C=C3/N(CCC[N+](C)(C)C)c4ccc(S(=O)(=O)[O-])cc4C3(C)C)/CCC2)=[N+](CCC[N+](C)(C)C)c2ccc(S(=O)(=O)[O-])cc21 [probe 3] the “fluorescence signal in explanted sponges” value (MMP-12 active form) was “intense signal”, the Ki (ADAMTS-5) was over 10 µM and the Ki (hMMP-3) was 0.367 ± 0.061 µM. It also gave a Ki (hMMP-8) of 3.31 ± 0.348 µM, a Ki (hMMP-14) of 1.02 ± 0.069 µM and a Ki (hMMP-13) of 0.124 ± 0.007 µM. It also gave a Ki (hMMP-7) of 4.99 ± 0.151 µM, a Ki (hMMP-2) of 2.13 ± 0.172 µM and a Ki (hMMP-9) of 4.79 ± 0.535 µM. For the same molecule, the Ki (hMMP-10) was 0.136 ± 0.022 µM, the Ki (hMMP-12) was 0.0034 ± 0.0003 µM and the “difference in potency towards MMP-12, factor relative to probe 1” value (hMMP-12; relative to probe 1) was 4.
